Test results: the supplement of paper PMC12076712
Each block holds one molecule with its values, some of them ahead of it.

Key:
Experiment in all cases: pIC50, kinobeads binding competition
UniProt O94768 = target: T1, UniProt O94768
T1 sequence (whole entry): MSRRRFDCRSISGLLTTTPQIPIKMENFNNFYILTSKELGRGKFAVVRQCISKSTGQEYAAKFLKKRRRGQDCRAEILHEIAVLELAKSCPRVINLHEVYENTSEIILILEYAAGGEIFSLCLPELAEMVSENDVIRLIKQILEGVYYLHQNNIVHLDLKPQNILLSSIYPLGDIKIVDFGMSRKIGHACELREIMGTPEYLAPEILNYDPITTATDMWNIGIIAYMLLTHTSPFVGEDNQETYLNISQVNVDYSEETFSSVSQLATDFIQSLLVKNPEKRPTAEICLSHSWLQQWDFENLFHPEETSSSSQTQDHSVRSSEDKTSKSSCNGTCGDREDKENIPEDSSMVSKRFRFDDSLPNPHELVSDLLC
How it was run: (§1)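 To obtain pIC50, fold changes versus vehicle were fitted to logistic dose-response curves (R drc package) across biological duplicates. Protein binding to Kinobeads was quantified by TMT10 LC-MS/MS of digested bead-bound proteins. Treatments used nine concentrations with a top of 30 μM, applied to live Jurkat cells in 1:4 steps for 60 min at 37 °C before lysis, or to Jurkat lysate or a 1:1:1:1 HEK293/K-562/HepG2/placenta lysate mix in 1:5 steps for 60 min at 4 °C.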

UniProt Q8IW41 = target: T2, UniProt Q8IW41
T2 sequence (whole entry): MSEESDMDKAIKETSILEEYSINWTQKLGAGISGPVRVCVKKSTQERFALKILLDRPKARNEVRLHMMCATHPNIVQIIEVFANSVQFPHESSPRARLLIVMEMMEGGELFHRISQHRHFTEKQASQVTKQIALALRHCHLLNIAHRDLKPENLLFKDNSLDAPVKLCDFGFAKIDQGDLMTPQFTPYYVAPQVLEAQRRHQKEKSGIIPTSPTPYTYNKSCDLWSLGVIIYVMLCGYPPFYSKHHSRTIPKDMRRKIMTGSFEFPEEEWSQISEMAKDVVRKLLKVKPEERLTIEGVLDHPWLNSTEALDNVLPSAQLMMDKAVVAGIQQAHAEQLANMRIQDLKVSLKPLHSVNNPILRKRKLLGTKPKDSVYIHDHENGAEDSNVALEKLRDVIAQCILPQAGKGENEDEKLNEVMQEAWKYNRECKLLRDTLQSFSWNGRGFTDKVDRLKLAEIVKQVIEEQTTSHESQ
How it was run: as §1

NEK3 = target: T3, NEK3 (UniProt P51956)
T3 sequence (whole entry): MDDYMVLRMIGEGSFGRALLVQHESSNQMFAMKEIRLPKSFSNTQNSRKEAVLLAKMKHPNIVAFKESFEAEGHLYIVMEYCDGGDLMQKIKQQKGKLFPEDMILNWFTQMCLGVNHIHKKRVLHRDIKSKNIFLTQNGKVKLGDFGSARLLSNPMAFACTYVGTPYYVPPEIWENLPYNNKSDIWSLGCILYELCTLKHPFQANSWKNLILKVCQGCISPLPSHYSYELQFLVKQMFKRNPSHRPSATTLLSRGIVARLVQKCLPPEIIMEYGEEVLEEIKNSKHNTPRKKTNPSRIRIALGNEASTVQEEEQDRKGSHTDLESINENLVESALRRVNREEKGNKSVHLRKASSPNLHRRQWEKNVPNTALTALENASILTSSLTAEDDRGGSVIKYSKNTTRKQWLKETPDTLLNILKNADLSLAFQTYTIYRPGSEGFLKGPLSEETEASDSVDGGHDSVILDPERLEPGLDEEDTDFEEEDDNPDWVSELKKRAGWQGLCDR
How it was run: as §1

CDK6 = CDK6 (UniProt Q00534)
How it was run: as §1

MAP3K4 = MAP3K4 (UniProt Q9Y6R4)
How it was run: as §1

UniProt Q96GD4 = target: UniProt Q96GD4
How it was run: as §1

PRKCQ = PRKCQ (UniProt Q04759)
How it was run: as §1

UniProt Q5TCX8 = target: UniProt Q5TCX8
How it was run: as §1

ROCK1 = ROCK1 (UniProt Q13464)
How it was run: as §1

CAMK2B = CAMK2B (UniProt Q13554); settings: cell material: Lysate mix
How it was run: as §1

UniProt Q9NSY1 = target: UniProt Q9NSY1
How it was run: as §1

DYRK2 = target: T4, DYRK2 (UniProt Q92630)
T4 sequence (whole entry): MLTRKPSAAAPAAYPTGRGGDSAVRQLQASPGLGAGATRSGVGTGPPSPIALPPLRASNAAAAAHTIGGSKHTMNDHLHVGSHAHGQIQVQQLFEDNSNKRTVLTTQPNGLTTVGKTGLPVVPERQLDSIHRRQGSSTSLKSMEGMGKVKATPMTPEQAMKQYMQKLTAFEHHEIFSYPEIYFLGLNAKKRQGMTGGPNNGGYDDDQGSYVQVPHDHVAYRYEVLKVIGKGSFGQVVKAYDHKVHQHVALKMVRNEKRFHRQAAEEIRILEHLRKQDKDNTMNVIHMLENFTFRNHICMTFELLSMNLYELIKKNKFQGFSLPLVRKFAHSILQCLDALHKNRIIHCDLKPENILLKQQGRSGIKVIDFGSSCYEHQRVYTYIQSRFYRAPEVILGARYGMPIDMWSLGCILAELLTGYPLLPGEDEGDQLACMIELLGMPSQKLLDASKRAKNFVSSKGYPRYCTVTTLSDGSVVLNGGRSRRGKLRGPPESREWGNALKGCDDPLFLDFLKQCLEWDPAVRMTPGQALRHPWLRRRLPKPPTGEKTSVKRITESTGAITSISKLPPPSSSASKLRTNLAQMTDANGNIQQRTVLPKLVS
How it was run: as §1

UniProt P28482 = target: UniProt P28482
How it was run: as §1

CDK8 = CDK8 (UniProt P49336)
How it was run: as §1

CDK9 = CDK9 (UniProt P50750)
How it was run: as §1

CLK1 = CLK1 (UniProt P49759)
How it was run: as §1

Chain of MAP3K4 (Q9Y6R4 whole entry): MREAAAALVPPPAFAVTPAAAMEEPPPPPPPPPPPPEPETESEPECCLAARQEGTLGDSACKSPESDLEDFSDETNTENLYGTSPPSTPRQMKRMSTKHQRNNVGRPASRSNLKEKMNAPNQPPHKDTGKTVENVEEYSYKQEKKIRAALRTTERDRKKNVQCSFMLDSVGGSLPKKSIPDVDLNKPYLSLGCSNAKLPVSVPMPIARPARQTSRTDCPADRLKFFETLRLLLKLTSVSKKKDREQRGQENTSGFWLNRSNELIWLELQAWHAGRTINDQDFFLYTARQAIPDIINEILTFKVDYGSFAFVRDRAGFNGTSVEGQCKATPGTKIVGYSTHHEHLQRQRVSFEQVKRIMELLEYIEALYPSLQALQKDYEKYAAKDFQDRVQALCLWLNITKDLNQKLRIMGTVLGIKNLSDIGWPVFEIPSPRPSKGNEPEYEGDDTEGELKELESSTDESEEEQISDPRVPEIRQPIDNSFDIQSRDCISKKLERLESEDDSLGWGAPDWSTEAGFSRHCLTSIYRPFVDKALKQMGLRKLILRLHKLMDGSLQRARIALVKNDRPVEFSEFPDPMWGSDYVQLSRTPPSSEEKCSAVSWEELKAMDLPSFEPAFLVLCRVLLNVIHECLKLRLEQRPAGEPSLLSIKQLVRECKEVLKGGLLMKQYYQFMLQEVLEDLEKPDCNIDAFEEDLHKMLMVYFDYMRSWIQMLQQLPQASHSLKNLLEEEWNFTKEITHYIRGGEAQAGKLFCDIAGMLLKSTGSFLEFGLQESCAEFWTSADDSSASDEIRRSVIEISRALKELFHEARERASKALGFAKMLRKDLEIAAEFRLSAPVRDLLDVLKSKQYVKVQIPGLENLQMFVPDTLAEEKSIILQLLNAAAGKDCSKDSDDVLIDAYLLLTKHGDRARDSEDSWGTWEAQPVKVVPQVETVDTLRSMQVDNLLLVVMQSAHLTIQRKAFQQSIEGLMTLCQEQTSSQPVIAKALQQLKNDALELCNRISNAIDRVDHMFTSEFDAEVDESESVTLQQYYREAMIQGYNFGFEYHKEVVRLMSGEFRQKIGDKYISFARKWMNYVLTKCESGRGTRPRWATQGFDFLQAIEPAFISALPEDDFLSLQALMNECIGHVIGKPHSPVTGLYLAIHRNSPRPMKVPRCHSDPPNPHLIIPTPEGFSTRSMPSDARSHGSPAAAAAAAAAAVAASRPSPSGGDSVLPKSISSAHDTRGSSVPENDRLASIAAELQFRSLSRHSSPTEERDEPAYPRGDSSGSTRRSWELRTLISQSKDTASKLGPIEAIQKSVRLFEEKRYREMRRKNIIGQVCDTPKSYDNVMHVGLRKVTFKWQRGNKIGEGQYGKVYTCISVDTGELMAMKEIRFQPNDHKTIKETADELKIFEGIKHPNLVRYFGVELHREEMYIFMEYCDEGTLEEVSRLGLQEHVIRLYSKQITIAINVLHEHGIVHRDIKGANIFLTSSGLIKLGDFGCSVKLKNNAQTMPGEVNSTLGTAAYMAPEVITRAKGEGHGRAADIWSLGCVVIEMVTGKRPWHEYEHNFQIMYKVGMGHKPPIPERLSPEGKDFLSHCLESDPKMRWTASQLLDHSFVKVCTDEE
Chain of ROCK1 (Q13464 whole entry, looked up): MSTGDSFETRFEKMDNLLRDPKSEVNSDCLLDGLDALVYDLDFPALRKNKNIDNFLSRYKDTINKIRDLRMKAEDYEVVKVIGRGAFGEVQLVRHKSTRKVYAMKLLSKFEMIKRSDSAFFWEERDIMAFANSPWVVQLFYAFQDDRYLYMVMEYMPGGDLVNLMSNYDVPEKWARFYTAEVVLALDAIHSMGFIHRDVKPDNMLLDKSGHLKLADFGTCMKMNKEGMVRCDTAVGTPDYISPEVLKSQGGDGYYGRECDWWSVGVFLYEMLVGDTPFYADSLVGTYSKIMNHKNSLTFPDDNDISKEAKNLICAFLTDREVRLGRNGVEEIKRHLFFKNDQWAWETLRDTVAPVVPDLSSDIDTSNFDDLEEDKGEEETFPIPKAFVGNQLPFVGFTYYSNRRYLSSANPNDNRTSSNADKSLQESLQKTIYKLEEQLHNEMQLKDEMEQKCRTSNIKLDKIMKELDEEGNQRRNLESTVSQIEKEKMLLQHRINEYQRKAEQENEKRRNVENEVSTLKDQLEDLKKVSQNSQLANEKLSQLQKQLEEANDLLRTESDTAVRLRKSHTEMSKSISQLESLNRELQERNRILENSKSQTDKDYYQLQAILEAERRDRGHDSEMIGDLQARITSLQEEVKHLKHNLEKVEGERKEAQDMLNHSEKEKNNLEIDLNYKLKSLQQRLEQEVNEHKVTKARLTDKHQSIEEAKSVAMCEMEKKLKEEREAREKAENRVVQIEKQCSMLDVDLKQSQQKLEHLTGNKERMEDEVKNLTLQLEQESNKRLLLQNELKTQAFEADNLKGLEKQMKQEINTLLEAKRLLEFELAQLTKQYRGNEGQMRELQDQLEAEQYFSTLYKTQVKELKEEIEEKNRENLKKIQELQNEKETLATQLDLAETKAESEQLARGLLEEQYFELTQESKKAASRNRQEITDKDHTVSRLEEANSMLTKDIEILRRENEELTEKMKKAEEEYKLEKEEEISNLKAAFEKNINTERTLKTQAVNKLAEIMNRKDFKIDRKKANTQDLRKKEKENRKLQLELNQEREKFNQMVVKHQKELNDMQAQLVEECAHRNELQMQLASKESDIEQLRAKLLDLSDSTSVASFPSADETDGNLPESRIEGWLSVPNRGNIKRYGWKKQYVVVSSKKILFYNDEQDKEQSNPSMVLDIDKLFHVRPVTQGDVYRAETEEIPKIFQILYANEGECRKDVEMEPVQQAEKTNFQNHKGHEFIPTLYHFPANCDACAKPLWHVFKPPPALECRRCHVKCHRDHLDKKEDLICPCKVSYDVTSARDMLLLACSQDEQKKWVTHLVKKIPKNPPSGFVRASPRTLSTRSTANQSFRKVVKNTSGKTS
Chain of UniProt P28482 (P28482 whole entry): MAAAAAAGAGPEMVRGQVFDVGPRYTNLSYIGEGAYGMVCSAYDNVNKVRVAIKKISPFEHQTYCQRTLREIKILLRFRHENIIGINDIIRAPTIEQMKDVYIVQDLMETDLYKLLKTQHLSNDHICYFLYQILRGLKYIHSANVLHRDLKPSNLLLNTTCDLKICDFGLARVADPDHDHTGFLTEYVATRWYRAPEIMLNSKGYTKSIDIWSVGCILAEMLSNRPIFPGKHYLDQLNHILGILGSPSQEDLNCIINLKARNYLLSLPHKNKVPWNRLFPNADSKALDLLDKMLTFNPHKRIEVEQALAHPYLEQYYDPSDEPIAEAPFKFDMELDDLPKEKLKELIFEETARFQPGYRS
Chain of CDK9 (P50750 whole entry): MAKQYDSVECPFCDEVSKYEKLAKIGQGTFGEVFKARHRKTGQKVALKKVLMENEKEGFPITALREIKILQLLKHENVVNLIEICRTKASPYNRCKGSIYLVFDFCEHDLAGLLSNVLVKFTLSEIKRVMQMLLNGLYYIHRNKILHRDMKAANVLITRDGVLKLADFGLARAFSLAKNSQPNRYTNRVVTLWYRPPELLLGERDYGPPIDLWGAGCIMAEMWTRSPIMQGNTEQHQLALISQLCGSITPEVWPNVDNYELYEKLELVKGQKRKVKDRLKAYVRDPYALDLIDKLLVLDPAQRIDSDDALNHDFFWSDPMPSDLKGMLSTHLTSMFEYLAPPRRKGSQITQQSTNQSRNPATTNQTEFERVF
Chain of UniProt Q9NSY1 (Q9NSY1 whole entry, looked up): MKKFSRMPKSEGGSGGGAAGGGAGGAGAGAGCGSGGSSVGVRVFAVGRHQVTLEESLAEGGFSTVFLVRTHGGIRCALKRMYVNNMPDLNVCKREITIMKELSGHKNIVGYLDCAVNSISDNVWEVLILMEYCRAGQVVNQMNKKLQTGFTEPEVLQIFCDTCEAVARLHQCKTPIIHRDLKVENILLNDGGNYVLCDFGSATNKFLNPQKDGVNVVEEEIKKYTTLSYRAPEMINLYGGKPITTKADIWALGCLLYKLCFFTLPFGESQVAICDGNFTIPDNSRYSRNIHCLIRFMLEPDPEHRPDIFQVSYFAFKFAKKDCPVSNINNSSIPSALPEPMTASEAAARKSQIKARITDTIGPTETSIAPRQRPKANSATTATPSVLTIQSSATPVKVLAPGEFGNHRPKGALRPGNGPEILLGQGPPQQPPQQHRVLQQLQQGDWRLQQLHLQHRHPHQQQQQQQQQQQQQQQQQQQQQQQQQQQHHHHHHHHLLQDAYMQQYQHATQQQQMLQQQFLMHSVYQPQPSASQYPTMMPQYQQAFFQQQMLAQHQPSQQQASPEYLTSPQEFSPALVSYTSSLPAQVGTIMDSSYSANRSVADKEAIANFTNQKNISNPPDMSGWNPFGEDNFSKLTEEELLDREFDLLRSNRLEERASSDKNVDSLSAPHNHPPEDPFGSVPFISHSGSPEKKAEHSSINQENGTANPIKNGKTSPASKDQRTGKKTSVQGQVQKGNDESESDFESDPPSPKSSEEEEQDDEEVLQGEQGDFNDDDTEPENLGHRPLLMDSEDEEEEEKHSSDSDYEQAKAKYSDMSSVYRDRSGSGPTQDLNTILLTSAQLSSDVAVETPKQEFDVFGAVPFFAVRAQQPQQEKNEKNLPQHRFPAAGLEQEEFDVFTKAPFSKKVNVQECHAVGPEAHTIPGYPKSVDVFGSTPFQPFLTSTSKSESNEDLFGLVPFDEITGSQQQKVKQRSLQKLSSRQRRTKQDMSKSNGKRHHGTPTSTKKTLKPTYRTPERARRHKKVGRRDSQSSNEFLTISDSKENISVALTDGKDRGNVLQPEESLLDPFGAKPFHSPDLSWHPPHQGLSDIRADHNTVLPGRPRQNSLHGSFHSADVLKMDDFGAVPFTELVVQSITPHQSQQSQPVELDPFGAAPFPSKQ

pIC50 (UniProt O94768; cell material: Jurkat cells): < 4.52
pIC50 (UniProt O94768; cell material: Jurkat lysate): < 4.52
pIC50 (UniProt O94768; cell material: Lysate mix): < 4.52
pIC50 (UniProt Q8IW41; cell material: Jurkat cells): < 4.52
pIC50 (UniProt Q8IW41; cell material: Jurkat lysate): < 4.52
pIC50 (UniProt Q8IW41; cell material: Lysate mix): < 4.52
pIC50 (NEK3; cell material: Jurkat cells): 5.56
pIC50 (NEK3; cell material: Lysate mix): < 4.52
pIC50 (CDK6; cell material: Jurkat cells): 6.38
pIC50 (CDK6; cell material: Jurkat lysate): < 4.52
pIC50 (CDK6; cell material: Lysate mix): < 4.52
pIC50 (MAP3K4; cell material: Jurkat cells): 5.96
pIC50 (MAP3K4; cell material: Jurkat lysate): < 4.52
pIC50 (MAP3K4; cell material: Lysate mix): < 4.52
pIC50 (UniProt Q96GD4; cell material: Jurkat cells): 6.39
pIC50 (UniProt Q96GD4; cell material: Lysate mix): 4.98
pIC50 (PRKCQ; cell material: Jurkat lysate): < 4.52
pIC50 (PRKCQ; cell material: Lysate mix): < 4.52
pIC50 (UniProt Q5TCX8; cell material: Jurkat cells): 4.93
pIC50 (UniProt Q5TCX8; cell material: Jurkat lysate): < 4.52
pIC50 (UniProt Q5TCX8; cell material: Lysate mix): < 4.52
pIC50 (ROCK1; cell material: Jurkat cells): < 4.52
pIC50 (ROCK1; cell material: Jurkat lysate): < 4.52
pIC50 (ROCK1; cell material: Lysate mix): < 4.52
pIC50 (CAMK2B): < 4.52
pIC50 (UniProt Q9NSY1; cell material: Jurkat cells): < 4.52
pIC50 (UniProt Q9NSY1; cell material: Jurkat lysate): < 4.52
pIC50 (UniProt Q9NSY1; cell material: Lysate mix): < 4.52
pIC50 (DYRK2; cell material: Jurkat cells): < 4.52
pIC50 (DYRK2; cell material: Jurkat lysate): < 4.52
pIC50 (DYRK2; cell material: Lysate mix): < 4.52
pIC50 (UniProt P28482; cell material: Jurkat cells): < 4.52
pIC50 (UniProt P28482; cell material: Jurkat lysate): < 4.52
pIC50 (UniProt P28482; cell material: Lysate mix): < 4.52
pIC50 (CDK8; cell material: Jurkat cells): < 4.52
pIC50 (CDK8; cell material: Jurkat lysate): < 4.52
pIC50 (CDK8; cell material: Lysate mix): < 4.52
pIC50 (CDK9; cell material: Jurkat lysate): < 4.52
pIC50 (CDK9; cell material: Lysate mix): < 4.52
pIC50 (CLK1; cell material: Jurkat lysate): < 4.52
pIC50 (CLK1; cell material: Lysate mix): < 4.52
SMILES: O=C(NCCNC(=O)c1cc(Nc2cc(C3CC3)[nH]n2)nc(N2CCN(Cc3ccc(S(=O)(=O)F)cc3)CC2)n1)OC1CC/C=C/CCC1 (centres undefined)

pIC50 (UniProt O94768; cell material: Lysate mix): < 4.52
pIC50 (UniProt Q8IW41; cell material: Lysate mix): < 4.52
pIC50 (NEK3; cell material: Lysate mix): 5.46
pIC50 (CDK6; cell material: Lysate mix): 5.52
pIC50 (MAP3K4; cell material: Lysate mix): 5.61
pIC50 (UniProt Q96GD4; cell material: Lysate mix): 5.94
pIC50 (PRKCQ; cell material: Lysate mix): < 4.52
pIC50 (UniProt Q5TCX8; cell material: Lysate mix): 4.65
pIC50 (ROCK1; cell material: Lysate mix): < 4.52
pIC50 (CAMK2B): < 4.52
pIC50 (UniProt Q9NSY1; cell material: Lysate mix): < 4.52
pIC50 (DYRK2; cell material: Lysate mix): 4.65
pIC50 (UniProt P28482; cell material: Lysate mix): < 4.52
pIC50 (CDK8; cell material: Lysate mix): < 4.52
pIC50 (CDK9; cell material: Lysate mix): 4.73
pIC50 (CLK1; cell material: Lysate mix): 5.44
SMILES: CCNC(=O)c1cc(Nc2cc(C3CC3)[nH]n2)nc(N2CCN(Cc3ccc(S(=O)(=O)F)cc3)CC2)n1

pIC50 (UniProt O94768; cell material: Lysate mix): < 4.52
pIC50 (UniProt Q8IW41; cell material: Lysate mix): < 4.52
pIC50 (NEK3; cell material: Lysate mix): < 4.52
pIC50 (CDK6; cell material: Lysate mix): 5.22
pIC50 (MAP3K4; cell material: Lysate mix): 4.8
pIC50 (UniProt Q96GD4; cell material: Lysate mix): 6.13
pIC50 (PRKCQ; cell material: Lysate mix): < 4.52
pIC50 (UniProt Q5TCX8; cell material: Lysate mix): < 4.52
pIC50 (ROCK1; cell material: Lysate mix): < 4.52
pIC50 (CAMK2B): < 4.52
pIC50 (UniProt Q9NSY1; cell material: Lysate mix): < 4.52
pIC50 (DYRK2; cell material: Lysate mix): < 4.52
pIC50 (UniProt P28482; cell material: Lysate mix): < 4.52
pIC50 (CDK8; cell material: Lysate mix): < 4.52
pIC50 (CDK9; cell material: Lysate mix): < 4.52
pIC50 (CLK1; cell material: Lysate mix): < 4.52
SMILES: CCNC(=O)c1cc(Nc2cc(C)[nH]n2)nc(N2CCN(Cc3ccc(S(=O)(=O)F)cc3)CC2)n1

pIC50 (UniProt O94768; cell material: Lysate mix): < 4.52
pIC50 (UniProt Q8IW41; cell material: Lysate mix): < 4.52
pIC50 (NEK3; cell material: Lysate mix): < 4.52
pIC50 (CDK6; cell material: Lysate mix): < 4.52
pIC50 (MAP3K4; cell material: Lysate mix): < 4.52
pIC50 (UniProt Q96GD4; cell material: Lysate mix): 4.92
pIC50 (PRKCQ; cell material: Lysate mix): < 4.52
pIC50 (UniProt Q5TCX8; cell material: Lysate mix): < 4.52
pIC50 (ROCK1; cell material: Lysate mix): < 4.52
pIC50 (CAMK2B): < 4.52
pIC50 (UniProt Q9NSY1; cell material: Lysate mix): < 4.52
pIC50 (DYRK2; cell material: Lysate mix): < 4.52
pIC50 (UniProt P28482; cell material: Lysate mix): < 4.52
pIC50 (CDK8; cell material: Lysate mix): < 4.52
pIC50 (CDK9; cell material: Lysate mix): < 4.52
pIC50 (CLK1; cell material: Lysate mix): < 4.52
SMILES: Cc1cc(Nc2cc(C(=O)NCCNC(=O)OC3CC/C=C/CCC3)nc(N3CCN(Cc4ccc(S(=O)(=O)F)cc4)CC3)n2)n[nH]1 (centres undefined)
